Literature values, collected in patent US20170112867A1, “PHARMACEUTICAL COMBINATIONS OF […] RIBAVIRIN” (SANOVEL ILAC SANAYI VE TICARET ANONIM SIRKETI, priority 2014, published 2017).

How the values were obtained:
[1] = tested on: chronic hepatitis C (CHC) infections; conditions: ribavirin alone, during or after therapy

Molecule | solubility in anhydrous alcohol (anhydrous alcohol) | solubility in water | HCV RNA levels [1] | solubility (across the pH range of 2-7.7 at 37° C.) [mg/mL] | metabolism by Cytochromes P450 (CYP) (Cytochromes P450 (CYP))
1-β-Dribofuranosyl-1H-1,2,4-triazole-3-carboxamide [Ribavirin] | slightly soluble | freely soluble | did not reduce HCV RNA levels | – | –
CC(C)OC(=O)[C@H](C)N[P@](=O)(OC[C@H]1O[C@@H](n2ccc(=O)[nH]c2=O)[C@](C)(F)[C@@H]1O)Oc1ccccc1 [Sofosbuvir, (S)-Isopropyl 2-((S)-(((2R,3R,4R,5R)-5-(2,4-dioxo3,4-dihydropyrimidin-1(2H)-yl)-4-fluoro-3-hydroxy-4-methyltetrahydrofuran-2yl)methoxy)-(phenoxy)phosphorylamino)propanoate] | – | slightly soluble | – | ≥ 2 | not metabolized
